17 molecules from US20190045783A1, “SUBSTITUTED IMIDAZOLYLCARBOXAMIDES AS PESTICIDES” (BAYER CROPSCIENCE AKTIENGESELLSCHAFT, priority 2016, published 2019) can be followed below.

Where two headings read alike, the source gives them in different places.

Data set [1] is described as follows: log P by HPLC on reversed-phase column (C18), EEC directive 79/831 Annex V.A8. Format: physicochemical. As to conditions: for chromatographic logP: preparation examples, read-out: log P[n].
For data set [2], the system named is green peach aphid (Myzus persicae). The experiment in a line: Myzus persicae spray test (Chinese cabbage leaf discs). The data set is classed as in vivo. As to conditions: application rate 500 g/ha, after 5-6 days, Chinese cabbage leaf discs, 100% = all aphids killed; for pest or weed control at 500 g/ha: Myzus persicae, foliar, read-out: efficacy in %. On the procedure:
Myzus persicae—Spray Test
To produce a suitable active ingredient formulation, 1 part by weight of active ingredient is dissolved with the stated parts by weight of solvent and made up with water containing an emulsifier concentration of 1000 ppm until the desired concentration is attained. To produce further test concentrations, the formulation is diluted with emulsifier-containing water.
After 5-6 days, the efficacy in % is determined. 100% means that all the aphids have been killed; 0% means that no aphids have been killed.

For data set [3], the system named is green peach aphids (Myzus persicae). The experiment in a line: Myzus persicae oral test. The data set is classed as in vivo. The conditions noted are these: application rate 20 ppm, after 5 days, oral, 100% = all aphids killed; for pest or weed control at 20 ppm: Myzus persicae, 120 h, read-out: efficacy in %. On the procedure:
Solvent: 100 parts by weight of acetone
Subsequently, the plates are sealed with parafilm, which a mixed population of green peach aphids (Myzus persicae) within a second microtitre plate is able to puncture and imbibe the solution through it.
After 5 days, the efficacy in % is determined. 100% means that all the aphids have been killed; 0% means that no aphids have been killed.

For `CON(C)C(=O)c1ncc(C(=O)N(C)c2cccnc2)n1C` [I-1-069, N^2-Methoxy-N^2,N^5,1-trimethyl-N^5-(pyridin-3-yl)-1H-imidazole-2,5-dicarboxamide], the chromatographic logP in data set [1] (reversed-phase HPLC column (C18), neutral range, pH 7.8, HPLC C18, 43° C.) worked out at 0.72. Further, the pest or weed control at 500 g/ha in data set [2] turned out to be 100%. In data set [3], the pest or weed control at 20 ppm worked out at 100%.
As to `CN(C(=O)c1cnc(C(=O)C(C)(C)C#N)n1C)c1cccnc1` [I-1-067], the “logP [n]” value in data set [1] (pH 7.8) is 1.55. For the same molecule, the efficacy in % in data set [2] and in data set [3] was 100% throughout.
For the molecule `CN(C(=O)c1cnc(/C=N/NC(=O)OCc2ccccc2)n1C)c1cccnc1` [I-1-028], the “logP [n]” value in data set [1] (pH 7.8) came out at 1.63. Moreover, the efficacy in % in data set [2] worked out at 90%; in data set [3], 100%.
Turning to `CCN(C(=O)c1cnc(C(=O)N(C)C)n1C)c1cccnc1` [I-1-072], in data set [1] (neutral range, pH 7.8, HPLC C18, 43° C., Table 1), the “logP [n]” value worked out at 0.88. For the same molecule, the efficacy in % in data set [2] and in data set [3] was 100% throughout.
Turning to `CCO/N=C/c1ncc(C(=O)N(CC)c2cccnc2)n1C` [I-1-051], the “logP [n]” value in data set [1] (pH 7.8) turned out to be 1.66. The efficacy in % in data set [2] and in data set [3] was 100% in each case.
Regarding `CN(C(=O)c1cnc(C(=O)NC2CC2)n1C)c1cccnc1` [I-1-062], the “logP [n]” value in data set [1] (pH 7.8) was 1.06. Moreover, the efficacy in % in data set [2] and in data set [3] was 100% in each case.
Regarding `CC1OC(c2ncc(C(=O)N(C)c3cccnc3)n2C)OC1C` (stereo not shown) [I-1-020], the “logP [n]” value in data set [1] (pH 7.8) was found to be 1.23. In addition, the efficacy in % in data set [2] and in data set [3] was 100% in each case.
For the molecule `CCCO/N=C/c1ncc(C(=O)N(C)c2cccnc2)n1C` [I-1-023], in data set [1] (pH 7.8), the “logP [n]” value is given as 1.74. Further, the efficacy in % in data set [2] and in data set [3] was 100% each time.
With `CN(C(=O)c1cnc(C2COC(C)(C)OC2)n1C)c1cccnc1` [I-1-016, 2-(2,2-Dimethyl-1,3-dioxan-5-yl)-N,1-dimethyl-N-(pyridin-3-yl)-1H-imidazole-5-carboxamide], in data set [1] (pH 7.8), the “log P[n]” value is reported as 1.48 and the “logP [n]” value turned out to be 1.48. This molecule also had an efficacy in % in data set [2] of 100%. The efficacy in % in data set [3] amounted to 100%.
On to `CCN(C(=O)c1cnc(/C=N/OC(C)C)n1C)c1cccnc1` [I-1-041], for which the “logP [n]” value in data set [1] (pH 7.8) is recorded as 1.81. Moreover, the efficacy in % in data set [2] was 90%; in data set [3], 100%.
The like results for `CCNC(=O)c1ncc(C(=O)N(CC)c2cccnc2)n1C` [I-1-066] were, in that order, 1.24, 100% and 100%.
On the same counts, the results for `CN(C(=O)c1cnc(C(=O)NC(CO)c2ccccc2)n1C)c1cccnc1` (stereo not shown) [I-1-079] are 1.39, 90% and 90%.
The like results for `CCO/N=C/c1ncc(C(=O)N(C)c2cccnc2)n1C` [I-1-004] were, in that order, 1.41, 90% and 100%.
As for `CC1COC(c2ncc(C(=O)N(C)c3cccnc3)n2C)O1` (stereo not shown) [I-1-014], the “logP [n]” value in data set [1] (pH 7.8) was determined as 1.02. Besides, the efficacy in % in data set [2] and in data set [3] was 100% each time.
For the molecule `COC(=O)N(C)/N=C/c1ncc(C(=O)N(C)c2cccnc2)n1C` [I-1-018, Methyl (2E)-1-methyl-2-({1-methyl-5-[methyl(pyridin-3-yl)carbamoyl]-1H-imidazol-2-yl}methylene)hydrazinecarboxylate], in data set [1] (neutral range, pH 7.8, HPLC C18, 43° C.), the chromatographic logP was 1.08. In addition, the pest or weed control at 500 g/ha in data set [2] worked out at 100%. Also, the pest or weed control at 20 ppm in data set [3] came to 100%.
With `CN(C(=O)c1cnc(C2OCCS2)n1C)c1cccnc1` (stereo not shown) [I-1-021], the “logP [n]” value in data set [1] (pH 7.8) came out at 0.97. The efficacy in % in data set [2] and in data set [3] was 100% each time.
Regarding `CC(C)O/N=C/c1ncc(C(=O)N(C)c2cccnc2)n1C` [I-1-005], the “logP [n]” value in data set [1] (pH 7.8) came to 1.7. Moreover, the efficacy in % in data set [2] and in data set [3] was 100% throughout.
